From patent US10544143B2, “4-azaindole compounds” (BRISTOL-MYERS SQUIBB COMPANY, priority 2017, dated 2020)
Read-outs that look alike come from different tables or passages of the source. Values belong to the compound of their own block, whether it stands above or below them.

Legend:
human TLR7 = human TLR7 (Homo sapiens (Human), UniProt Q9NYK1); assay: TLR7 inhibition reporter assay (HEK-Blue SEAP); type: cell-based
human TLR8 = human TLR8 (Homo sapiens (Human), UniProt Q9NR97); assay: TLR8 inhibition reporter assay (HEK-Blue SEAP); settings: read-out: TLR8 IC50;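 note: SEAP driven by IFN-β minimal promoter carrying NF-κB and AP-1 sites, compounds dosed 0.05 nM to 50 µM for 22 h, inhibition scaled between agonist-plus-DMSO and reference-inhibitor wells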
Sequence of human TLR8 (Q9NR97 27-1041): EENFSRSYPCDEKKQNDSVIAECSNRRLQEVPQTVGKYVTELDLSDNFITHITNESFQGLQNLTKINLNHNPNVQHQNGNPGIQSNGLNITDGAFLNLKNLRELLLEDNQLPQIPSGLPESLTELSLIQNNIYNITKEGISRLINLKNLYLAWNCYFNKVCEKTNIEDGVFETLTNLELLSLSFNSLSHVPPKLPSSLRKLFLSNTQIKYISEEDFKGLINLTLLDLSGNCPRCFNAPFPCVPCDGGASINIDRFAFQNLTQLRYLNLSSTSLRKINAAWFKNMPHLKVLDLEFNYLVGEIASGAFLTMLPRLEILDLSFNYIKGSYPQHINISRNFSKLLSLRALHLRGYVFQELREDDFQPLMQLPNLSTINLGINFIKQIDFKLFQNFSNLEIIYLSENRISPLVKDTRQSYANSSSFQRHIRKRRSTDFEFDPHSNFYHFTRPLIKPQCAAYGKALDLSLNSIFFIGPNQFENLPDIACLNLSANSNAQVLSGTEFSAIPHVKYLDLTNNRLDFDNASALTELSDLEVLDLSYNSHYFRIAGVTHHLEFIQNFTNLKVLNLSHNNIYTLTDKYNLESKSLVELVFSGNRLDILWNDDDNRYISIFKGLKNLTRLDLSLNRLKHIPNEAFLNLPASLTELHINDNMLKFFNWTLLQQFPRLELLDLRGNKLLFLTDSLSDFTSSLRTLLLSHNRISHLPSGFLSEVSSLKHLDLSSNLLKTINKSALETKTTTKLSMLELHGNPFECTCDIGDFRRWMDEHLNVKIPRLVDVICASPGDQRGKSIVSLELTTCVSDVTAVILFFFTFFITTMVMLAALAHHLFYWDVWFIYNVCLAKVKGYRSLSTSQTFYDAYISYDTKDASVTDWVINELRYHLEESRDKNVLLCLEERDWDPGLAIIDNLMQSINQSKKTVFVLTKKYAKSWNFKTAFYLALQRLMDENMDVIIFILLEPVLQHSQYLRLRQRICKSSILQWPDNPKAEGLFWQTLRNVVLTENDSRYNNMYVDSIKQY

human TLR9 = human TLR9 (Homo sapiens (Human), UniProt Q9NR96); assay: TLR9 inhibition reporter assay (HEK-Blue SEAP); settings: read-out: TLR9 IC50;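 note: SEAP driven by an IFN-β minimal promoter with NF-κB and AP-1 sites, read after 22 h, compounds dosed 0.05 nM–50 µM, inhibition scaled between agonist plus DMSO and reference-inhibitor wells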
Sequence of human TLR9 (Q9NR96 26-1032): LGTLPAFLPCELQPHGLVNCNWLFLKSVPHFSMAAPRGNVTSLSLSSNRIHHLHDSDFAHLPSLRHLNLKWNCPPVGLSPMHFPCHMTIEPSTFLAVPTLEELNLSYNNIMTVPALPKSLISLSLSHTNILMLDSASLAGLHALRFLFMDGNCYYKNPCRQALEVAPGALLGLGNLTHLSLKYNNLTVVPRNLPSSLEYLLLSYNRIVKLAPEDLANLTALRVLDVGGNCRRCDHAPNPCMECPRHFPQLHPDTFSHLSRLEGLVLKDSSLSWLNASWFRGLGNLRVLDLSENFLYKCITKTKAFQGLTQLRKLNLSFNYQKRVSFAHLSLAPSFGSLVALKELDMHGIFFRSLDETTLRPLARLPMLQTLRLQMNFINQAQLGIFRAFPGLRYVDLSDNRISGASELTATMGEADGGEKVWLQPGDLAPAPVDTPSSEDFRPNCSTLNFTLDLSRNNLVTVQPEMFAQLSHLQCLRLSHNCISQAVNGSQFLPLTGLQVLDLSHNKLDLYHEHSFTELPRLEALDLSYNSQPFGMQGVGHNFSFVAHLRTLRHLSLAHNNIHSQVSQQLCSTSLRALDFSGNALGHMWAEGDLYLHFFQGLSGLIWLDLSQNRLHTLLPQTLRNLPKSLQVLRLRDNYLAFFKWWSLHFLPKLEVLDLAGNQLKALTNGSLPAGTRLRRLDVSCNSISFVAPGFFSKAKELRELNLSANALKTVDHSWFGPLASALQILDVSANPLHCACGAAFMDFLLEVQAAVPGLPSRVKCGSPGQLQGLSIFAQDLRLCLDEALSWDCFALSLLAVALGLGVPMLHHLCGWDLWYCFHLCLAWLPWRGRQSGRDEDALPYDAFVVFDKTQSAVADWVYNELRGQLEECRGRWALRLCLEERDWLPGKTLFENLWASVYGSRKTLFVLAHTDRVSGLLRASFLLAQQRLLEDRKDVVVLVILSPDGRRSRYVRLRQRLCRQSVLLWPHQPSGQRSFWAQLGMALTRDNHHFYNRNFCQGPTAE

[1] = HEK-Blue cells overexpressing human TLR7, gardiquimod 7.5 μM stimulation, SEAP reporter
[2] = HEK-Blue cells overexpressing human TLR8, R848 15.9 μM stimulation, SEAP reporter
[3] = HEK-Blue cells overexpressing human TLR9, ODN2006 5 nM stimulation, SEAP reporter
[4] = HEK-Blue human TLR7 cells, gardiquimod 7.5 μM
[5] = HEK-Blue human TLR8 cells, R848 15.9 μM
[6] = HEK-Blue human TLR9 cells, ODN2006 5 nM
[7] = HEK-Blue cells overexpressing human TLR7, SEAP reporter, gardiquimod 7.5 μM
[8] = HEK-Blue cells overexpressing human TLR8, SEAP reporter, R848 15.9 μM
[9] = HEK-Blue cells overexpressing human TLR9, SEAP reporter, ODN2006 5 nM

Sequence of human TLR7 (Q9NYK1 27-1049): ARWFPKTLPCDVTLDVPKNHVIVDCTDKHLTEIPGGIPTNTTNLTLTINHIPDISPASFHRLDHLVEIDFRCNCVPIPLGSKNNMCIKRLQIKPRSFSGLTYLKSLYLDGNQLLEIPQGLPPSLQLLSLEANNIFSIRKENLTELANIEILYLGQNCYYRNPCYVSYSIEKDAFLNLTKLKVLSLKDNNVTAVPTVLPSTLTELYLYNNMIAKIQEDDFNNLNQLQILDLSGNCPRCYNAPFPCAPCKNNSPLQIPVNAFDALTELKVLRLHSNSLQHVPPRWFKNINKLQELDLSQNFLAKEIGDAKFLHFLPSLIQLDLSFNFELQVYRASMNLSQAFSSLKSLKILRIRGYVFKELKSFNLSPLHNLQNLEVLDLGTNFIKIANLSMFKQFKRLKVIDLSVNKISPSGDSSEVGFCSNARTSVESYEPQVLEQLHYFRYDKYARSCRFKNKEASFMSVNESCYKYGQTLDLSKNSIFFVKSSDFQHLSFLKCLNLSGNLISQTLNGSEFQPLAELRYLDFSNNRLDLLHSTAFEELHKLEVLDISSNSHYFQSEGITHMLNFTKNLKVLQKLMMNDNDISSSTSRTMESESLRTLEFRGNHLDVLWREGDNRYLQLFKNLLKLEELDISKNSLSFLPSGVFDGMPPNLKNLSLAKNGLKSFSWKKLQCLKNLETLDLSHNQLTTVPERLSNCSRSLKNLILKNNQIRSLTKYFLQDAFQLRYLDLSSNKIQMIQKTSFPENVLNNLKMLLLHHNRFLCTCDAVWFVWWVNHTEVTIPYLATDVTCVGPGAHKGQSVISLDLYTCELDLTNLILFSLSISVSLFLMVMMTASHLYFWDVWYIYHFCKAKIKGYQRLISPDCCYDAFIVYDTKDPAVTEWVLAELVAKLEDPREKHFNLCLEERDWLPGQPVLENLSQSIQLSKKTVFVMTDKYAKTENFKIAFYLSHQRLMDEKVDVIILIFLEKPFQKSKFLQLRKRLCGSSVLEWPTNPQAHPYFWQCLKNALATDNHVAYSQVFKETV

IC50 (human TLR7; [1]): 3.5 nM
IC50 (human TLR8; [2]): 0.58 nM
IC50 (human TLR9; [3]): > 50000 nM
Structure (SMILES): Cc1c(-c2[nH]c3ccc(N4CCCC(NCC5(S(C)(=O)=O)CC5)C4)nc3c2C(C)C)cn2ncnc2c1C (stereo not drawn) [Example 87]

IC50 (human TLR7; [7]): 1.6 nM
IC50 (human TLR8; [8]): 1.8 nM
IC50 (human TLR9; [9]): 2060 nM
Structure (SMILES): Cc1c(-c2[nH]c3ccc(C4CCC(NC5CC5)CC4)nc3c2C(C)C)cn2ncnc2c1C (stereo not drawn) [Example 421]

IC50 (human TLR7; [4]): 5.6 nM
IC50 (human TLR8; [5]): 28 nM
IC50 (human TLR9; [6]): 14300 nM
Structure (SMILES): Cc1c(-c2[nH]c3ccc(N4C[C@H](C)N(C(C)C)C[C@H]4C)nc3c2C(C)C)cn2ncnc2c1C [Example 841]

IC50 (human TLR7; [1]): 2.2 nM
IC50 (human TLR8; [2]): 0.28 nM
IC50 (human TLR9; [3]): 7780 nM
Structure (SMILES): COc1cc(-c2[nH]c3ccc(N4CCN(CC(C)(C)O)CC4)nc3c2C(C)C)cn2ncnc12 [Example 106]

IC50 (human TLR7; [7]): 2.6 nM
IC50 (human TLR8; [8]): 23 nM
IC50 (human TLR9; [9]): 2720 nM
Structure (SMILES): COc1cc(-c2[nH]c3ccc(OC4CCN(CC(=O)N(C)C)CC4)nc3c2C(C)C)cn2ncnc12 [Example 609, 2-(4-((3-isopropyl-2-(8-methoxy-[1,2,4]triazolo[1,5-a]pyridin-6-yl)-1H-pyrrolo[3,2-b]pyridin-5-yl)oxy)piperidin-1-yl)-N,N-dimethylacetamide]

IC50 (human TLR7; [1]): 36 nM
IC50 (human TLR8; [2]): 187 nM
IC50 (human TLR9; [3]): 21600 nM
Structure (SMILES): Cc1c(-c2[nH]c3ccc(C4CCC(N5CC(F)(F)C5)CC4)nc3c2C(C)C)cn2ncnc2c1C (stereo not drawn) [Example 374]

IC50 (human TLR7; [1]): 34 nM
IC50 (human TLR8; [2]): 15 nM
IC50 (human TLR9; [3]): > 50000 nM
Structure (SMILES): Cc1c(-c2[nH]c3ccc(N4CCC(N(Cc5ncnn5C)Cc5ncnn5C)CC4)nc3c2C(C)C)cn2ncnc2c1C [Example 76]

IC50 (human TLR7; [7]): 1.1 nM
IC50 (human TLR8; [8]): 2.4 nM
IC50 (human TLR9; [9]): 8490 nM
Structure (SMILES): Cc1c(-c2[nH]c3cc(F)c(C4CCC(N)CC4)nc3c2C(C)C)cn2ncnc2c1C (stereo not drawn) [Example 507]

IC50 (human TLR7; [1]): 1.8 nM
IC50 (human TLR8; [2]): 0.86 nM
IC50 (human TLR9; [3]): 5580 nM
Structure (SMILES): COc1cc(-c2[nH]c3ccc(N4CCN(C(C)CCO)CC4)nc3c2C(C)C)cn2ncnc12 (stereo not drawn) [Example 118]

IC50 (human TLR7; [4]): 12 nM
IC50 (human TLR8; [5]): 6.1 nM
IC50 (human TLR9; [6]): > 50000 nM
Structure (SMILES): Cc1c(-c2[nH]c3ccc(N4C[C@@H](C)N(CCCS(C)(=O)=O)[C@@H](C)C4)nc3c2C(C)C)cn2ncnc2c1C [Example 868]

IC50 (human TLR7; [4]): 1.6 nM
IC50 (human TLR8; [5]): 1.4 nM
IC50 (human TLR9; [6]): 2250 nM
Structure (SMILES): Cc1c(-c2[nH]c3ccc(C4CCC(N5CCC6(CCOC6)C5)CC4)nc3c2C(C)C)cn2ncnc2c1C (stereo not drawn) [Example 1059]

IC50 (human TLR7; [7]): 0.66 nM
IC50 (human TLR8; [8]): 4.1 nM
IC50 (human TLR9; [9]): 2660 nM
Structure (SMILES): CNC(=O)CN1CCC(c2ccc3[nH]c(-c4cc(OC)c5ncnn5c4)c(C(C)C)c3n2)CC1 [Example 536]

IC50 (human TLR7; [1]): 17 nM
IC50 (human TLR8; [2]): 6 nM
IC50 (human TLR9; [3]): 1220 nM
Structure (SMILES): CC(C)c1c(-c2cn(C)c3ncccc23)[nH]c2ccc(N3CC(NCC(=O)N(C)C)C3)nc12 [Example 34]

IC50 (human TLR7; [7]): 1.1 nM
IC50 (human TLR8; [8]): 2.2 nM
IC50 (human TLR9; [9]): 2520 nM
Structure (SMILES): Cc1c(-c2[nH]c3ccc(C4CCC(NCC(=O)NC(C)(C)C)CC4)nc3c2C(C)C)cn2ncnc2c1C (stereo not drawn) [Example 485]

IC50 (human TLR7; [1]): 2.6 nM
IC50 (human TLR8; [2]): 10 nM
IC50 (human TLR9; [3]): 4500 nM
Structure (SMILES): Cc1c(-c2[nH]c3ccc(C4CCC(N(C)C)CC4)nc3c2C(C)C)cn2ncnc2c1C (stereo not drawn) [Example 355]

IC50 (human TLR7; [1]): 4.3 nM
IC50 (human TLR8; [2]): 37 nM
IC50 (human TLR9; [3]): 1470 nM
Structure (SMILES): COc1cc(-c2[nH]c3ccc(C4CCC(N5CCCC5)CC4)nc3c2C(C)C)cn2ncnc12 (stereo not drawn) [Example 174]

IC50 (human TLR7; [4]): 1.5 nM
IC50 (human TLR8; [5]): 6.9 nM
IC50 (human TLR9; [6]): 3640 nM
Structure (SMILES): Cc1c(-c2[nH]c3ccc(N4C[C@@H](C)N(C(=O)CN5CCCC5)[C@H](C)C4)nc3c2C(C)C)cn2ncnc2c1C [Example 928]

IC50 (human TLR7; [1]): 0.82 nM
IC50 (human TLR8; [2]): 8.3 nM
IC50 (human TLR9; [3]): 6960 nM
Structure (SMILES): CNC1CCC(c2nc3c(C(C)C)c(-c4cc(OC)c5ncnn5c4)[nH]c3cc2F)CC1 (stereo not drawn) [Example 348]

IC50 (human TLR7; [1]): 2.3 nM
IC50 (human TLR8; [2]): 0.75 nM
IC50 (human TLR9; [3]): 4160 nM
Structure (SMILES): COc1cc(-c2[nH]c3ccc(N4CCN(C5CCOCC5)CC4)nc3c2C(C)C)cn2ncnc12 [Example 104]

IC50 (human TLR7; [4]): 5 nM
IC50 (human TLR8; [5]): 21 nM
IC50 (human TLR9; [6]): > 50000 nM
Structure (SMILES): Cc1c(-c2[nH]c3ccc(N4C[C@@H](C)N(CC(N)=O)C[C@H]4C)nc3c2C(C)C)cn2ncnc2c1C [Example 799]

IC50 (human TLR7; [4]): 0.64 nM
IC50 (human TLR8; [5]): 0.63 nM
IC50 (human TLR9; [6]): 7360 nM
Structure (SMILES): Cc1c(-c2[nH]c3ccc(N4CCN(CC#N)C[C@@H]4C)nc3c2C(C)C)cn2ncnc2c1C [Example 810]

IC50 (human TLR7; [1]): 0.61 nM
IC50 (human TLR8; [2]): 3 nM
IC50 (human TLR9; [3]): 365 nM
Structure (SMILES): COc1cc(-c2[nH]c3ccc(C4CCC(NCC(=O)N(C)C)CC4)nc3c2C(C)C)cn2ncnc12 (stereo not drawn) [Example 231]

More lines, now with the values behind:

Structure (SMILES): Cc1c(-c2[nH]c3ccc(C4CC5(C4)CN(CCC(N)=O)C5)nc3c2C(C)C)cn2ncnc2c1C [Example 1029]
IC50 (human TLR7; [4]): 1.4 nM
IC50 (human TLR8; [5]): 5 nM
IC50 (human TLR9; [6]): 8380 nM

Structure (SMILES): Cc1c(-c2[nH]c3ccc(C4CCC(N(C)CC(=O)N(C)C)CC4)nc3c2C(C)C)cn2ncnc2c1C (stereo not drawn) [Example 408]
IC50 (human TLR7; [7]): 18 nM
IC50 (human TLR8; [8]): 43 nM
IC50 (human TLR9; [9]): 6440 nM

Structure (SMILES): Cc1c(-c2[nH]c3ccc(N4CCNCC4=O)nc3c2C(C)C)cn2ncnc2c1C [Example 139]
IC50 (human TLR7; [1]): 37 nM
IC50 (human TLR8; [2]): 14 nM
IC50 (human TLR9; [3]): > 50000 nM

Structure (SMILES): Cc1c(-c2[nH]c3ccc(N4[C@@H]5CC[C@H]4CN(C(=O)CN4CC6(COC6)C4)C5)nc3c2C(C)C)cn2ncnc2c1C [Example 920]
IC50 (human TLR7; [4]): 2.6 nM
IC50 (human TLR8; [5]): 5.9 nM
IC50 (human TLR9; [6]): 12100 nM

Structure (SMILES): COc1cc(-c2[nH]c3ccc(C4CCC(N5CCCC5)CC4)nc3c2C(C)C)cn2ncnc12 (stereo not drawn) [Example 195]
IC50 (human TLR7; [1]): 0.8 nM
IC50 (human TLR8; [2]): 4.3 nM
IC50 (human TLR9; [3]): 530 nM

Structure (SMILES): Cc1c(-c2[nH]c3ccc(N4CCN(CCC#N)CC4)nc3c2C(C)C)cn2ncnc2c1C [Example 148]
IC50 (human TLR7; [1]): 97 nM
IC50 (human TLR8; [2]): 16 nM
IC50 (human TLR9; [3]): > 50000 nM

Structure (SMILES): CNC(=O)CN(C)C1CCC(c2ccc3[nH]c(-c4cc(OC)c5ncnn5c4)c(C(C)C)c3n2)CC1 (stereo not drawn) [Example 228]
IC50 (human TLR7; [1]): 3.3 nM
IC50 (human TLR8; [2]): 23 nM
IC50 (human TLR9; [3]): 2390 nM

Structure (SMILES): COc1cc(-c2[nH]c3ccc(C4CCC(N(C)C)CC4)nc3c2C(C)C)cn2ncnc12 (stereo not drawn) [Example 177]
IC50 (human TLR7; [1]): 0.28 nM
IC50 (human TLR8; [2]): 2.5 nM
IC50 (human TLR9; [3]): 148 nM

Structure (SMILES): COc1cc(-c2[nH]c3ccc(C4CCC(N(C)CCO)CC4)nc3c2C(C)C)cn2ncnc12 (stereo not drawn) [Example 169]
IC50 (human TLR7; [1]): 3.1 nM
IC50 (human TLR8; [2]): 21 nM
IC50 (human TLR9; [3]): 1220 nM

Structure (SMILES): CCN(C)CC(=O)N1CCN(c2ccc3[nH]c(-c4cn5ncnc5c(C)c4N)c(C(C)C)c3n2)C[C@H]1C [Example 942]
IC50 (human TLR7; [4]): 0.5 nM
IC50 (human TLR8; [5]): 3.4 nM
IC50 (human TLR9; [6]): 12000 nM

Structure (SMILES): COCCNC1CCC(c2nc3c(C(C)C)c(-c4cc(OC)c5ncnn5c4)[nH]c3cc2C)CC1 (stereo not drawn) [Example 327]
IC50 (human TLR7; [1]): > 3120 nM
IC50 (human TLR8; [2]): > 3120 nM
IC50 (human TLR9; [3]): > 50000 nM

Structure (SMILES): Cc1cc(-c2[nH]c3ccc(C4CN(CC#N)CCO4)nc3c2C(C)C)cn(C)c1=O (stereo not drawn) [Example 670]
IC50 (human TLR7; [7]): 56 nM
IC50 (human TLR8; [8]): 58 nM
IC50 (human TLR9; [9]): > 50000 nM

Structure (SMILES): CC[C@H]1CNCCN1c1ccc2[nH]c(-c3cn4ncnc4c(C)c3C)c(C(C)C)c2n1 [Example 988]
IC50 (human TLR7; [4]): 0.36 nM
IC50 (human TLR8; [5]): 0.23 nM
IC50 (human TLR9; [6]): 3770 nM

Structure (SMILES): COc1cc(-c2[nH]c3ccc(C4CCC(NCC#N)C4)nc3c2C(C)C)cn2ncnc12 (stereo not drawn) [Example 716]
IC50 (human TLR7; [7]): 0.74 nM
IC50 (human TLR8; [8]): 6.7 nM
IC50 (human TLR9; [9]): 2530 nM

Structure (SMILES): Cc1cc(-c2[nH]c3ccc(OC4CCN(C)CC4)nc3c2C(C)C)cn2ncnc12 [Example 594, 6-(3-isopropyl-5-((1-methylpiperidin-4-yl)oxy)-1H-pyrrolo[3,2-b]pyridin-2-yl)-8-methyl-[1,2,4]triazolo[1,5-a]pyridine]
IC50 (human TLR7; [7]): 3.9 nM
IC50 (human TLR8; [8]): 16 nM
IC50 (human TLR9; [9]): 7910 nM
